Laboratory results as given in US10961200B2, “Small molecule inhibitors of lactate dehydrogenase and methods of use thereof” (THE UNITED STATES OF AMERICA, AS REPRESENTED BY THE …, priority 2014, dated 2021).
Like-named read-outs stand apart in the source and are kept apart here.

Target: Human LDHA (Homo sapiens (Human), UniProt P00338)
Assay: human LDHA primary biochemical assay (resazurin/diaphorase coupled, fluorescence)
Source text: Test compounds were placed in a Greiner Bio-One (Monroe, N.C.) 1536-well black solid bottom assay plate. 200 millimolar (mM) Tris HCl, pH 7.4, 100 micromolar […] EDTA and 0.01% TWEEN-20™, final concentration, was used as the assay buffer. The LDHA reagent was 2 nanomolar (nM) Human LDHA (Meridian Life Science, Inc., Memphis, Tenn.), final concentration, in assay buffer.

[1] = read-out: Inhibitory activity IC50
[2] = LDHA inhibitory activity, assay of Example 1, activity level classes

IC50 [1] [µM] | IC50 [2] [µM] | SMILES
 | > 57 | O=C(O)c1csc(-n2nc(-c3ccc(F)c(F)c3)cc2C(=O)O)n1 [Compound 71, 2-(5-carboxy-3-(3,4-difluorophenyl)-1H-pyrazol-1-yl)thiazole-4-carboxylic acid]
1 to 57 |  | CCOC(=O)c1csc(-n2nc(-c3cccc(-c4ccccc4)c3)c(Cc3ccc(S(N)(=O)=O)cc3)c2O)n1 [Compound 73, ethyl 2-(3-([1,1′-biphenyl]-3-yl)-5-hydroxy-4-(4-sulfamoylbenzyl)-1H-pyrazol-1-yl)thiazole-4-carboxylate]
1 to 57 |  | N#CCc1cc(-c2ccc(F)c(F)c2)nn1-c1nc(C(=O)O)cs1 [Compound 74, 2-(5-(cyanomethyl)-3-(3,4-difluorophenyl)-1H-pyrazol-1-yl)thiazole-4-carboxylic acid]
1 to 57 |  | O=C(O)c1csc(-n2nc(-c3ccc(F)c(F)c3)cc2Cc2nnn[nH]2)n1 [Compound 75, 2-(5-((1H-tetrazol-5-yl)methyl)-3-(3,4-difluorophenyl)-1H-pyrazol-1-yl)thiazole-4-carboxylic acid]
1 to 57 |  | NS(=O)(=O)c1ccc(-c2cn(-c3nc(C(=O)O)cs3)nc2-c2ccccc2)cc1 [Compound 76, 2-(3-phenyl-4-(4-sulfamoylphenyl)-1H-pyrazol-1-yl)thiazole-4-carboxylic acid]
1 to 57 |  | CCOC(=O)c1csc(-n2nc(-c3ccccc3)c(Cc3ccc(S(N)(=O)=O)cc3)c2C(F)(F)F)n1 [Compound 77, ethyl 2-(3-phenyl-4-(4-sulfamoylbenzyl)-5-(trifluoromethyl)-1H-pyrazol-1-yl)thiazole-4-carboxylate]
1 to 57 |  | NC(=O)c1csc(-n2nc(-c3ccccc3)c(Cc3ccc(S(N)(=O)=O)cc3)c2I)n1 [Compound 78, 2-(5-iodo-3-phenyl-4-(4-sulfamoylbenzyl)-1H-pyrazol-1-yl)thiazole-4-carboxamide]
1 to 57 |  | NC(=O)c1csc(-n2cc(Cc3ccc(S(N)(=O)=O)cc3)c(-c3ccccc3)n2)n1 [Compound 79, 2-(3-phenyl-4-(4-sulfamoylbenzyl)-1H-pyrazol-1-yl)thiazole-4-carboxamide]
1 to 57 |  | NS(=O)(=O)c1ccc(Cc2c(-c3ccccc3)nn(-c3nc(C(=O)O)cs3)c2Nc2cccnc2)cc1 [Compound 80, 2-(3-phenyl-5-(pyridin-3-ylamino)-4-(4-sulfamoylbenzyl)-1H-pyrazol-1-yl)thiazole-4-carboxylic acid]
 | 1 to 57 | NS(=O)(=O)c1ccc(Cc2c(-c3cccnc3)nn(-c3nc(C(=O)O)cs3)c2O)cc1 [Compound 82, 2-(5-hydroxy-3-(pyridin-3-yl)-4-(4-sulfamoylbenzyl)-1H-pyrazol-1-yl)thiazole-4-carboxylic acid]
1 to 57 |  | Nc1c(Cc2ccc(S(N)(=O)=O)cc2)c(-c2ccccc2)nn1-c1ccc(Cl)nn1 [Compound 83, 4-((5-amino-1-(6-chloropyridazin-3-yl)-3-phenyl-1H-pyrazol-4-yl)methyl)benzenesulfonamide]
1 to 57 |  | Cc1cccc(C(=O)n2nc(-c3ccccc3)c(Cc3ccc(S(N)(=O)=O)cc3)c2N)c1 [Compound 84, 4-((5-amino-1-(3-methylbenzoyl)-3-phenyl-1H-pyrazol-4-yl)methyl)benzenesulfonamide]
1 to 57 |  | Nc1c(Cc2ccc(S(N)(=O)=O)cc2)c(-c2ccccc2)nn1C(=O)c1cccc(F)c1 [Compound 85, 4-((5-amino-1-(3-fluorobenzoyl)-3-phenyl-1H-pyrazol-4-yl)methyl)benzenesulfonamide]
1 to 57 |  | Cc1csc(-n2nc(-c3ccccc3)c(Cc3ccc(S(N)(=O)=O)cc3)c2N)n1 [Compound 86, 4-((5-amino-1-(4-methylthiazol-2-yl)-3-phenyl-1H-pyrazol-4-yl)methyl)benzenesulfonamide]
1 to 57 |  | NS(=O)(=O)c1ccc(Cc2c(-c3ccccc3)nn(-c3nc(C(=O)O)cs3)c2Cc2nnn[nH]2)cc1 [Compound 87, 2-(5-((1H-tetrazol-5-yl)methyl)-3-phenyl-4-(4-sulfamoylbenzyl)-1H-pyrazol-1-yl)thiazole-4-carboxylic acid]
 | > 57 | NS(=O)(=O)c1ccc(Cc2c(-c3cccc4cc(F)ccc34)nn(-c3nc(C(=O)O)cs3)c2O)cc1 [Compound 89, 2-(3-(6-fluoronaphthalen-1-yl)-5-hydroxy-4-(4-sulfamoylbenzyl)-1H-pyrazol-1-yl)thiazole-4-carboxylic acid]
 | > 57 | CS(=O)(=O)c1cccc(-c2cc(O)n(-c3nc(C(=O)O)cs3)n2)c1 [Compound 92, 2-(5-hydroxy-3-(3-(methylsulfonyl)phenyl)-1H-pyrazol-1-yl)thiazole-4-carboxylic acid]
 | > 57 | O=C(O)c1csc(-n2nc(-c3cccc(N4CCOCC4)c3)cc2O)n1 [Compound 93, 2-(5-hydroxy-3-(3-morpholinophenyl)-1H-pyrazol-1-yl)thiazole-4-carboxylic acid]
 | > 57 | CS(=O)(=O)c1cc(-c2cc(O)n(-c3nc(C(=O)O)cs3)n2)ccc1F [Compound 94, 2-(3-(4-fluoro-3-(methylsulfonyl)phenyl)-5-hydroxy-1H-pyrazol-1-yl)thiazole-4-carboxylic acid]
 | > 57 | O=C(O)c1csc(-n2nc(-c3cccc(F)c3F)cc2O)n1 [Compound 96, 2-(3-(2,3-difluorophenyl)-5-hydroxy-1H-pyrazol-1-yl)thiazole-4-carboxylic acid]

SMILES | IC50 [1] [µM] | IC50 [2] [µM]
NC(=O)c1csc(-n2nc(-c3cccc(-c4ccccc4)c3)c(Cc3ccc(S(N)(=O)=O)cc3)c2O)n1 [Compound 70, 2-(3-([1,1′-biphenyl]-3-yl)-5-hydroxy-4-(4-sulfamoylbenzyl)-1H-pyrazol-1-yl)thiazole-4-carboxamide] | > 57 | 
NS(=O)(=O)c1ccc(Cc2c(-c3cccc(-c4ccccc4)c3)nn(-c3nc(-c4nnn[nH]4)cs3)c2O)cc1 [Compound 72, 4-((1-(4-(1H-tetrazol-5-yl)thiazol-2-yl)-3-([1,1′-biphenyl]-3-yl)-5-hydroxy-1H-pyrazol-4-yl)methyl)benzenesulfonamide] | 1 to 57 | 
NS(=O)(=O)c1ccc(Cc2c(-c3cccc4ccccc34)nn(-c3nc(C(=O)O)cs3)c2O)cc1 [Compound 81, 2-(5-hydroxy-3-(naphthalen-1-yl)-4-(4-sulfamoylbenzyl)-1H-pyrazol-1-yl)thiazole-4-carboxylic acid] |  | 1 to 57
NS(=O)(=O)c1ccc(Cc2c(-c3ccccc3)nn(-c3nc(CO)cs3)c2C(F)(F)F)cc1 [Compound 88, 4-((1-(4-(hydroxymethyl)thiazol-2-yl)-3-phenyl-5-(trifluoromethyl)-1H-pyrazol-4-yl)methyl)benzenesulfonamide] | 1 to 57 | 
NS(=O)(=O)N1CCN(Cc2cn(-c3nc(C(=O)O)cs3)nc2-c2ccccc2)CC1 [Compound 90, 2-(3-phenyl-4-((4-sulfamoylpiperazin-1-yl)methyl)-1H-pyrazol-1-yl)thiazole-4-carboxylic acid] | 1 to 57 | 
O=C(O)c1csc(-n2nc(-c3ccccc3)cc2O)n1 [Compound 91, 2-(5-hydroxy-3-phenyl-1H-pyrazol-1-yl)thiazole-4-carboxylic acid] | > 57 | 
O=C(O)c1csc(-n2nc(-c3cc(F)cc(F)c3)cc2O)n1 [Compound 95, 2-(3-(3,5-difluorophenyl)-5-hydroxy-1H-pyrazol-1-yl)thiazole-4-carboxylic acid] |  | > 57
